The assay addresses T1, human recombinant Aldh1a1 (hAldh1a1) (Homo sapiens, UniProt P00352).
T1 construct: recombinant human Aldh1a1 protein (Novoprotein, CF44)
T1 sequence (P00352 2-501): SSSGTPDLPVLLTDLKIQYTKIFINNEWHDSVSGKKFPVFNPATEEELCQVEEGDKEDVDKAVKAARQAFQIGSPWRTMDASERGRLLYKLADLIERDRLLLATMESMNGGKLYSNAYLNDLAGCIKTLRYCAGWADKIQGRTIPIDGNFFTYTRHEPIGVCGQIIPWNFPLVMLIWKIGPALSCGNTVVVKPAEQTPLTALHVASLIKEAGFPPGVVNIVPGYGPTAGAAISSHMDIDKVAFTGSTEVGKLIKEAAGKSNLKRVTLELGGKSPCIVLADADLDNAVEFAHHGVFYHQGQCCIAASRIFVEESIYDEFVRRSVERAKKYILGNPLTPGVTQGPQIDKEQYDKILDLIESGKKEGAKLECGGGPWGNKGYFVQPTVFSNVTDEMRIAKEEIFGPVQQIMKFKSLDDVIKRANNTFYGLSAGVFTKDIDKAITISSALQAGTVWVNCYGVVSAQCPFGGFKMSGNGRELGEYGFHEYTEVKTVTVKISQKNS
Briefly: SPR (Biacore T200, CM5 chip, amine coupling); also inhibited the recombinant enzyme's activity at […]. The class given is binding.

SMILES strings stand for the structures.

As for `COC(=O)C1=C(C)NC(C)=C(C(=O)OCCN(C)Cc2ccccc2)C1c1cccc([N+](=O)[O-])c1` (stereo not shown) [13-F9, nicardipine], the Kd was found to be 1980 nM.
